pIC50: −log10 of the molar value. Like-named read-outs stand apart in the source and are kept apart here.
Key:
[1] = tested on: N87 (gastric cancer) cells; assay: In vitro cell assay (MTS cell viability), N87; format: cell-based; details: free compounds, 96 hours after treatment
Experimental: (§1) In Vitro Cell Assay Procedure
(§2) Target expressing (BT474 (breast cancer), N87 (gastric cancer), HCC1954 (breast cancer), MDA-MB-361-DYT2 (breast cancer)) or non-expressing (HT-29) cells were seeded in 96-well cell culture plates for 24 hours before treatment. Cells were treated with 3-fold serially diluted antibody-drug conjugates or free compounds (i. e. no antibody conjugated to the drug) in duplicate at 10 concentrations. Cell viability was determined by CellTiter 96® AQueous One Solution Cell Proliferation MTS Assay (Promega, Madison Wis.) 96 hours after treatment. Relative cell viability was determined as percentage of untreated control. IC50 values were calculated using a four parameter logistic model #203 with XLfit v4. 2 (IDBS, Guildford, Surry, UK).

[2] = tested on: MDA-MB-361-DYT2 (breast cancer) cells; assay: In vitro cell assay (MTS cell viability), MDA-MB-361-DYT2; format: cell-based; details: free compounds, 96 hours after treatment
Experimental: as §1, §2

HT-29 cells = assay: In vitro cell assay (MTS cell viability), HT-29 (target non-expressing); format: cell-based; details: free compounds, 96 hours after treatment, read-out: HT29 IC50
Experimental: as §1, §2

[3] = molecular target: T1, tubulin/RB3-stathmin-like-domain (RB3-SLD-tdm) complex (Sus scrofa, UniProt P02550+P02554); assay: Tubulin Peptide-Binding Site Competition Assay (fluorescence polarization); design: species or system Porcine; details: FP competition with BODIPY-labeled vinca peptide probe; read after five hours at 22° C.; read-out: Tubulin Peptide-Binding Site Competition Assay IC50
T1 construct: purchased Cytoskeleton, Inc. T240; host or cells: RB3-SLD was made in house in E. coli
Experimental: Tubulin Peptide-Binding Site Competition Assay
Tubulin binding potency was measured for payloads or cysteine-capped linker-payloads using a fluorescence polarization (FP) competition assay. The binding of a BODIPY-labeled vinca peptide probe (# B31) to a tubulin/RB3-stathmin-like-domain (RB3-SLD-tdm) complex generates a high FP signal, which can be decreased when mixing with test compounds that compete with the FP probe. The order of addition for the reagents in the FP assay was designed to pre-mix the FP probe with various concentrations of the test compound before mixing them with the tubulin/RB3-SLD-dm complex. The final assay concentrations of the probe, tubulin and RB3-SLD-dm were 3, 6, and 100 nM, respectively. IC50 for each test compound is obtained by fitting the dose-dependent FP signal change using GraphPad Prism version 5 software (La Jolla, Calif.) while Ki is converted from the IC50 using the equations described previously (Nikolovska-Coleska et al., 2004). The FP signals were measured on an Infinite M1000 (Tecan, San Jose, Calif.) using ProxiPlate-384 F Plus, Black (Perkin-Elmer, Waltham, Mass., Cat #6008260) with 15 μL of solution per well. Sample dilution and mixing were done using a Beckman Biomek XF (Brea, Calif.). Porcine tubulin was purchased from Cytoskeleton, Inc. (Denver, Colo., Cat #T240) and RB3-SLD was expressed in E. coli. and purified on Q and then Superdex75 columns. The FP assay test for each compound was run in duplicates by mixing 6 μL of solution 1 containing 2.5× test compound (2.5× serial dilution from 7.8 μM maximum concentration, 11 total concentrations) and 7.5 nM of the FP probe in 80 mM PIPES, pH 7.0, 0.02% Tween 20, 2 mM MgCl2, 1 mM EGTA and 3% DMSO with 9 μL of solution 2 containing […] porcine tubulin and 167 nM of RB3-SLD-dm peptide ([…]-[…]) on ProxiPlate-384 micro-plates.

Compound | pIC50 [1] | pIC50 [2] | pIC50 (HT-29 cells) | pIC50 ([1]; 96 h) | pIC50 ([2]; 96 h) | pIC50 (HT-29 cells; Homo sapiens, HT-29, 96 h) | pIC50 [3]
CCNC(=O)O[C@H](C[C@H](C(C)C)N(C)C(=O)[C@@H](NC(=O)C1(C)CCCCN1C)[C@@H](C)CC)c1nc(C(=O)N[C@@H](Cc2ccc(N)cc2)C[C@H](C)C(=O)O)cs1 (stereo in doubt) [#B24, (2S,4R)-5-(4-aminophenyl)-4-{[(2-{(1R,3R)-3-[(N-{[(2R)-1,2-dimethylpiperidin-2-yl]carbonyl}-L-isoleucyl)(methyl)amino]-1-[(ethylcarbamoyl)oxy]-4-methylpentyl}-1,3-thiazol-4-yl)carbonyl]amino}-2-methylpentanoic acid] | 8.91 | 8.91 | 8.94 | – | – | – | –
CCNC(=O)N[C@H](C[C@H](C(C)C)N(C)C(=O)[C@@H](NC(=O)[C@@]1(C)CCCN1C)[C@@H](C)CC)c1nc(C(=O)N[C@@H](Cc2ccc(N)cc2)C[C@H](C)C(=O)O)cs1 [#B29, 1,2-dimethyl-D-prolyl-N-{(1R,3R)-1-(4-{[(2R,4S)-1-(4-aminophenyl)-4-carboxypentan-2-yl]carbamoyl}-1,3-thiazol-2-yl)-1-[(ethylcarbamoyl)amino]-4-methylpentan-3-yl}-N-methyl-L-isoleucinamide] | – | – | – | 7.54 | 7.60 | 7.61 | –
CCNC(=O)O[C@H](C[C@H](C(C)C)N(C)C(=O)[C@@H](NC(=O)[C@]1(C)CCCCN1C)[C@@H](C)CC)c1nc(C(=O)N[C@@H](Cc2ccc(N)cc2)C[C@H](C)C(=O)O)cs1 [#B25, (2S,4R)-5-(4-aminophenyl)-4-{[(2-{(1R,3R)-3-[(N-{[(2S)-1,2-dimethylpiperidin-2-yl]carbonyl}-L-isoleucyl)(methyl)amino]-1-[(ethylcarbamoyl)oxy]-4-methylpentyl}-1,3-thiazol-4-yl)carbonyl]amino}-2-methylpentanoic acid] | 8.20 | 8.34 | 8.23 | – | – | – | –
CCOC(=O)[C@@H](C)C[C@H](Cc1ccccc1)NC(=O)c1csc([C@@H](C[C@H](C(C)C)N(C)C(=O)[C@@H](NC(=O)[C@@]2(C)CCCN2C)[C@@H](C)CC)NC(C)=O)n1 [#B18, 1,2-dimethyl-D-prolyl-N-[(1R,3R)-1-(acetylamino)-1-(4-{[(2R,4S)-5-ethoxy-4-methyl-5-oxo-1-phenylpentan-2-yl]carbamoyl}-1,3-thiazol-2-yl)-4-methylpentan-3-yl]-N-methyl-L-isoleucinamide] | – | – | – | < 7.00 | < 7.00 | < 7.00 | –
CCNC(=O)O[C@H](C[C@H](C(C)C)N(C)C(=O)[C@@H](NC(=O)[C@@]1(C)CCCN1C)[C@@H](C)CC)c1nc(C(=O)N[C@H](C(=O)OC)C(C)O)cs1 (stereo partly drawn) [#B22, 1,2-dimethyl-D-prolyl-N-{(1R,3R)-1-[(ethylcarbamoyl)oxy]-1-(4-{[(2S)-3-hydroxy-1-methoxy-1-oxobutan-2-yl]carbamoyl}-1,3-thiazol-2-yl)-4-methylpentan-3-yl]-N-methyl-L-isoleucinamide] | – | – | – | 7.92 | 7.95 | 7.84 | –
CC[C@H](C)[C@H](NC(=O)[C@@]1(C)CCCN1C)C(=O)N(C)[C@H](C[C@@H](NC(C)=O)c1nc(C(=O)N[C@@H](Cc2ccccc2)C[C@H](C)C(=O)O)cs1)C(C)C [#B19, 1,2-dimethyl-D-prolyl-N-[(1R,3R)-1-(acetylamino)-1-(4-{[(2R,4S)-4-carboxy-1-phenylpentan-2-yl]carbamoyl}-1,3-thiazol-2-yl)-4-methylpentan-3-yl]-N-methyl-L-isoleucinamide] | – | – | – | 7.42 | 7.76 | 7.84 | –
CC[C@H](C)[C@H](NC(=O)[C@H]1CCCCN1C)C(=O)N(C)[C@H](C[C@@H](OC(C)=O)c1nc(C(=O)N[C@@H](Cc2ccccc2)CN2CCOCC2)cs1)C(C)C [#B40, (1R,3R)-4-methyl-3-[methyl(N-{[(2R)-1-methylpiperidin-2-yl]carbonyl}-L-isoleucyl)amino]-1-[4-({(2S)-1-(morpholin-4-yl)-3-phenylpropan-2-yl]carbamoyl}-1,3-thiazol-2-yl)pentyl acetate] | – | – | – | 9.31 | 9.51 | – | 8.62
CC[C@H](C)[C@H](NC(=O)C1(N(C)C)CCCC1)C(=O)N(C)[C@H](C[C@@H](OC(C)=O)c1nc(C(=O)N[C@@H](Cc2ccccc2)C[C@H](C)C(=O)OC)cs1)C(C)C [#B1, methyl (2S,4R)-4-{[(2-{(1R,3R)-1-(acetyloxy)-3-[(N-{[1-(dimethylamino)cyclopentyl]carbonyl}-L-isoleucyl)(methyl)amino]-4-methylpentyl}-1,3-thiazol-4-yl)carbonyl]amino}-2-methyl-5-phenylpentanoate] | – | – | – | 7.72 | 7.72 | – | 6.60
CCOC(=O)[C@@H](C)C[C@H](Cc1ccccc1)NC(=O)c1csc([C@@H](C[C@H](C(C)C)N(C)C(=O)[C@@H](NC(=O)[C@@]2(C)CCCN2C)[C@@H](C)CC)OC(C)=O)n1 [#B7, 1,2-dimethyl-D-prolyl-N-[(1R,3R)-1-(acetyloxy)-1-(4-{[(2R,4S)-5-ethoxy-4-methyl-5-oxo-1-phenylpentan-2-yl]carbamoyl}-1,3-thiazol-2-yl)-4-methylpentan-3-yl]-N-methyl-L-isoleucinamide] | – | – | – | 8.02 | 8.29 | – | 7.92
CC[C@H](C)[C@H](NC(=O)[C@H]1CCCCN1C)C(=O)N(C)[C@H](C[C@@H](OC(C)=O)c1nc(C(=O)NCCn2ccccc2=O)cs1)C(C)C [#B41, (1R,3R)-4-methyl-3-[methyl(N-{[(2R)-1-methylpiperidin-2-yl]carbonyl}-L-isoleucyl)amino]-1-[4-{[2-(2-oxopyridin-1(2H)-yl)ethyl]carbamoyl}-1,3-thiazol-2-yl)pentyl acetate] | – | – | – | 8.70 | 8.84 | – | 8.36
CC[C@H](C)[C@H](NC(=O)[C@@]1(C)CCCN1C)C(=O)N(C)[C@H](C[C@@H](OC(C)=O)c1nc(C(=O)N[C@@H](Cc2ccccc2)C[C@H](C)C(=O)O)cs1)C(C)C [#B8, 1,2-dimethyl-D-prolyl-N-[(1R,3R)-1-(acetyloxy)-1-(4-{[(2R,4S)-4-carboxy-1-phenylpentan-2-yl]carbamoyl}-1,3-thiazol-2-yl)-4-methylpentan-3-yl]-N-methyl-L-isoleucinamide] | – | – | – | 9.98 | 10.20 | – | 8.74
CC[C@H](C)[C@H](NC(=O)[C@H]1CCCCN1C)C(=O)N(C)[C@H](C[C@@H](OC(C)=O)c1nc(C(=O)NC(Cc2ccccc2)c2nc(C(=O)O)cs2)cs1)C(C)C (stereo partly drawn) [#B37, 2-(1-{[(2-{(1R,3R)-1-(acetyloxy)-4-methyl-3-[methyl(N-{[(2R)-1-methylpiperidin-2-yl]carbonyl}-L-isoleucyl)amino]pentyl}-1,3-thiazol-4-yl)carbonyl]amino}-2-phenylethyl)-1,3-thiazole-4-carboxylic acid] | – | – | – | 6.64 | 6.62 | – | 8.89
CC[C@H](C)[C@H](NC(=O)[C@H]1CCCCN1C)C(=O)N(C)[C@H](C[C@@H](OC(C)=O)c1nc(C(=O)NN(Cc2ccccc2)CC(C)C(=O)O)cs1)C(C)C (stereo partly drawn) [#B4, 3-{2-[(2-{(1R,3R)-1-(acetyloxy)-4-methyl-3-[methyl(N-{[(2R)-1-methylpiperidin-2-yl]carbonyl}-L-isoleucyl)amino]pentyl}-1,3-thiazol-4-yl)carbonyl]-1-benzylhydrazinyl}-2-methylpropanoic Acid] | – | – | – | 8.47 | 8.62 | – | 8.34

From patent US10723727B2, “Tubulysin analogs and methods for their preparation” (priority 2016, dated 2020)
